# Results published in patent US5140009A (Tap Pharmaceuticals, Inc., priority 1990, dated 1992).
# Numbered stars: 1 amine (or outer) side, 2 acyl side, 3 side chain; on linkers, the order of the positions; unused ones are H or OH. Square brackets hold non-standard residues; d marks the D form. Peptide text beside a SMILES is read from it. * marks the point of attachment. Propanoyl(3-(4-F-phenyl)) = O=C(CCc1ccc(F)cc1)*; X10 = O=C([C@@H](Cc1cncs1)N[*:1])[*:2]; 1Nal = N[C@@H](Cc1cccc2ccccc12)C(=O)O; d1Nal = N[C@H](Cc1cccc2ccccc12)C(=O)O; d2Nal = N[C@H](Cc1ccc2ccccc2c1)C(=O)O; NMeY = CN[C@@H](Cc1ccc(O)cc1)C(=O)O; d3Pal = N[C@H](Cc1cccnc1)C(=O)O; Cha = N[C@@H](CC1CCCCC1)C(=O)O; Nicotinoyl = O=C(c1cccnc1)*
# Target: T1, LHRH receptors (Rattus norvegicus, UniProt P30969)
# T1 construct: Pituitary membranes containing LHRH receptors are prepared in batches from quick-frozen rat pituitaries; tissue Hilltop Labs; host or cells: rat pituitary membranes
# T1 sequence (P30969 1-327): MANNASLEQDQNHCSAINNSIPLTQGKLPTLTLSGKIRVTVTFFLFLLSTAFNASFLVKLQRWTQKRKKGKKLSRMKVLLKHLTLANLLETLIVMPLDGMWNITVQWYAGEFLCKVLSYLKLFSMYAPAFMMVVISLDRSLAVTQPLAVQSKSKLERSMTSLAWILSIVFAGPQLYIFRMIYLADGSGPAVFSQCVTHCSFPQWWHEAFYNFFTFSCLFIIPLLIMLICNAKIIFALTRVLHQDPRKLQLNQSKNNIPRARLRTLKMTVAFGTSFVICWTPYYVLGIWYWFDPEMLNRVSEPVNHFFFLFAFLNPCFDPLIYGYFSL
# Assay: Receptor Binding (radioligand receptor binding assay)
# Settings: table 4; rat pituitary membranes, radioligand 50 pM, 2 hours at 4° C.; read-out: Receptor Binding pkI (converted)
row,SMILES,Ki
1,"CC(C)C[C@H](NC(=O)[C@@H](CO)NC(=O)[C@H](Cc1ccc(O)cc1)N(C)C(=O)[C@H](CO)NC(=O)[C@H](Cc1cccc2ccccc12)NC(=O)CCc1ccc(F)cc1)C(=O)N[C@@H](CCCNC(=N)N)C(=O)N1CCC[C@H]1C(=O)N[C@H](C)C(N)=O [Compound 180, (3-10)[N-(3-(4-Fluorophenyl)propionyl)-1-Nal^3 -NMeTyr^5 -D-Ser^6 -D-Ala^10]LHRH] ({Propanoyl(3-(4-F-phenyl))}-[1Nal]S[NMeY][dS]LRP[dA]-NH2)",0.0055 nM
2,"CC(C)C[C@H](NC(=O)[C@@H](CO)NC(=O)[C@H](Cc1ccc(O)cc1)N(C)C(=O)[C@H](CO)NC(=O)[C@@H](Cc1cccc2ccccc12)NC(=O)CCc1ccc(F)cc1)C(=O)N[C@@H](CCCNC(=N)N)C(=O)N1CCC[C@H]1C(=O)N[C@H](C)C(N)=O [Compound 181, (3-10)[N-(3-(4-Fluorophenyl)propionyl)-D-1-Nal^3 -NMeTyr^5 -D-Ser^6 -D-Ala^10]LHRH] ({Propanoyl(3-(4-F-phenyl))}-[d1Nal]S[NMeY][dS]LRP[dA]-NH2)",0.00398 nM
3,"CC(C)C[C@H](NC(=O)[C@@H](CCCCN)NC(=O)[C@H](Cc1ccc(O)cc1)N(C)C(=O)[C@H](CO)NC(=O)[C@@H](Cc1cncs1)NC(=O)CCc1ccc(F)cc1)C(=O)N[C@@H](CCCNC(=N)N)C(=O)N1CCC[C@H]1C(=O)N[C@H](C)C(N)=O [Compound 183, (3-10)[N-(3-(4-Fluorophenyl)propionyl)-D-Thiaz^3 -NMeTyr^5 -D-Lys^6 -D-Ala^10]LHRH] ({Propanoyl(3-(4-F-phenyl))}-[X10]S[NMeY][dK]LRP[dA]-NH2)",0.0263 nM
4,"CC(C)C[C@H](NC(=O)[C@@H](Cc1cccnc1)NC(=O)[C@H](Cc1ccc(O)cc1)N(C)C(=O)[C@H](CO)NC(=O)[C@@H](Cc1cccc2ccccc12)NC(=O)CCc1ccc(F)cc1)C(=O)N[C@@H](CCCNC(=N)N)C(=O)N1CCC[C@H]1C(=O)N[C@H](C)C(N)=O [Compound 184, (3-10)[N-(3-(4-Fluorophenyl)propionyl)-D-1-Nal^3 -NMeTyr^5 -D-3-Pal^6 -D-Ala^10]LHRH] ({Propanoyl(3-(4-F-phenyl))}-[d1Nal]S[NMeY][d3Pal]LRP[dA]-NH2)",0.00631 nM
5,"C[C@@H](NC(=O)[C@@H]1CCCN1C(=O)[C@H](CCCNC(=N)N)NC(=O)[C@H](CC1CCCCC1)NC(=O)[C@@H](CCCCN)NC(=O)[C@H](Cc1ccc(O)cc1)N(C)C(=O)[C@H](CO)NC(=O)[C@@H](Cc1cccc2ccccc12)NC(=O)CCc1ccc(F)cc1)C(N)=O [Compound 185, (3-10)[N-(3-(4-Fluorophenyl)propionyl)-D-1-Nal^3 -NMeTyr^5 -D-Lys^6 -Cha^7 -D-Ala^10]LHRH] ({Propanoyl(3-(4-F-phenyl))}-[d1Nal]S[NMeY][dK][Cha]RP[dA]-NH2)",0.0155 nM
6,"CC(C)C[C@H](NC(=O)[C@@H](CCCCN)NC(=O)[C@H](Cc1ccc(O)cc1)N(C)C(=O)[C@H](CO)NC(=O)[C@@H](Cc1ccc2ccccc2c1)NC(=O)CCc1ccc(F)cc1)C(=O)N[C@@H](CCCNC(=N)N)C(=O)N1CCC[C@H]1C(=O)N[C@H](C)C(N)=O [Compound 186, (3-10)[N-(3-(4-Fluorophenyl)propionyl)-D-2-Nal^3 -NMeTyr^5 -D-Lys^6 -D-Ala^10]LHRH] ({Propanoyl(3-(4-F-phenyl))}-[d2Nal]S[NMeY][dK]LRP[dA]-NH2)",0.0339 nM
7,"CC(C)C[C@H](NC(=O)[C@@H](CCCCNC(=O)c1cccnc1)NC(=O)[C@H](Cc1ccc(O)cc1)N(C)C(=O)[C@H](CO)NC(=O)[C@@H](Cc1ccc2ccccc2c1)NC(=O)CCc1ccc(F)cc1)C(=O)N[C@@H](CCCNC(=N)N)C(=O)N1CCC[C@H]1C(=O)N[C@H](C)C(N)=O [Compound 187, (3-10)[N-(3-(4-Fluorophenyl)propionyl)-D-2-Nal^3 -NMeTyr^5 -D-Lys^6 (N-epsilon-nicotinyl)-D-Ala^10]LHRH] ({Propanoyl(3-(4-F-phenyl))}-[d2Nal]S[NMeY][dK](Nicotinoyl)LRP[dA]-NH2)",0.0224 nM
